# Reference: patent US9630965B2, “Fused amino pyridine as HSP90 inhibitors” (Curis, Inc., priority 2007, dated 2017)
# Target: HSP90 (Homo sapiens (Human), UniProt P07900)
# Assay: HSP90 competition binding (fluorescence polarization) assay with FITC labeled GM
# Conditions: 24 hours of incubation at 4° C.
# Excerpt: (b) HSP90 Competition Binding (Fluorescence Polarization) Assay.
# A fluorescein isothiocyanate (FITC) labeled GM was purchase from InvivoGen (ant-fgl-1). The interaction between HSP90 and labeled GM forms the basis for the fluorescence polarization assay. A free and fast-tumbling FITC labeled GM emits random light with respect to the plane of polarization plane of excited light, resulting in a lower polarization degree (mP) value. When GM is bound to HSP90, the complex tumble slower and the emitted light is polarized, resulting in a higher mP value. […] The assay buffer contained 20 mM HEPES (pH 7.3), 50 mM KCl, 1 mM DTT, 50 mM MgCl2, 20 mM Na2MoO4, 0.01% NP40 with 0.1 mg/ml bovine gamma-globulin.
row,Compound,IC50 [µM]
1,"N#CCCCCn1c(Sc2cc3c(cc2I)OCO3)nc2c(N)nccc21 [Compound 30, 5-(4-amino-2-(6-iodobenzo[d][1,3]dioxol-5-ylthio)-1H-imidazo[4,5-c]pyridin-1-yl)pentanenitrile]",0.1 to 1
2,"N#CCCCn1c(Sc2cc3c(cc2Br)OCO3)nc2c(N)nccc21 [Compound 27, 4-(4-amino-2-(6-bromobenzo[d][1,3]dioxol-5-ylthio)-1H-imidazo[4,5-c]pyridin-1-yl)butanenitrile]",1 to 10
3,"C#CCCCn1c(Sc2cc(F)c(F)cc2I)nc2c(N)nccc21 [Compound 21, 2-(4,5-difluoro-2-iodophenylthio)-1-(pent-4-ynyl)-1H-imidazo[4,5-c]pyridin-4-amine]",> 10
4,"CCCCCn1c(Sc2cc3c(cc2I)OCO3)nc2c(N)nccc21 [Compound 4, 2-(6-iodobenzo[d][1,3]dioxol-5-ylthio)-1-pentyl-1H-imidazo[4,5-c]pyridin-4-amine]",0.1 to 1
5,"C#CCCCn1c(Sc2ccc3c(c2)CCO3)nc2c(N)nccc21 [Compound 9, 2-(2,3-dihydrobenzofuran-5-ylthio)-1-(pent-4-ynyl)-1H-imidazo[4,5-c]pyridin-4-amine]",> 10
6,"C#CCCCn1c(Sc2cc(O)c(O)cc2I)nc2c(N)nccc21 [Compound 16, 4-(4-amino-1-(pent-4-ynyl)-1H-imidazo[4,5-c]pyridin-2-ylthio)-5-iodobenzene-1,2-diol]",> 10
7,"N#CCCCCn1c(Sc2cc3c(cc2Br)OCO3)nc2c(N)nccc21 [Compound 29, 5-(4-amino-2-(6-bromobenzo[d][1,3]dioxol-5-ylthio)-1H-imidazo[4,5-c]pyridin-1-yl)pentanenitrile]",1 to 10
8,"N#CCCCn1c(Sc2cc3c(cc2I)OCO3)nc2c(N)nccc21 [Compound 28, 4-(4-amino-2-(6-iodobenzo[d][1,3]dioxol-5-ylthio)-1H-imidazo[4,5-c]pyridin-1-yl)butanenitrile]",0.1 to 1
9,"C#CCCCCn1c(Sc2cc3c(cc2Br)OCO3)nc2c(N)nccc21 [Compound 24, 2-(6-bromobenzo[d][1,3]dioxol-5-ylthio)-1-(hex-5-ynyl)-1H-imidazo[4,5-c]pyridin-4-amine]",1 to 10
10,"C#CCCn1c(Sc2cc3c(cc2Br)OCO3)nc2c(N)nccc21 [Compound 22, 2-(6-bromobenzo[d][1,3]dioxol-5-ylthio)-1-(but-3-ynyl)-1H-imidazo[4,5-c]pyridin-4-amine]",1 to 10
11,"COc1ccc(I)c(Sc2nc3c(N)nccc3n2CCCC#N)c1 [Compound 26, 4-(4-amino-2-(2-iodo-5-methoxyphenylthio)-1H-imidazo[4,5-c]pyridin-1-yl)butanenitrile]",1 to 10
12,"C#CCCCCn1c(Sc2cc3c(cc2I)OCO3)nc2c(N)nccc21 [Compound 25, 1-(hex-5-ynyl)-2-(6-iodobenzo[d][1,3]dioxol-5-ylthio)-1H-imidazo[4,5-c]pyridin-4-amine]",0.1 to 1
13,"C#CCCn1c(Sc2cc3c(cc2I)OCO3)nc2c(N)nccc21 [Compound 23, 1-(but-3-ynyl)-2-(6-iodobenzo[d][1,3]dioxol-5-ylthio)-1H-imidazo[4,5-c]pyridin-4-amine]",0.1 to 1

# Further lines, results first:
row,IC50 [µM],Compound
1,0.1 to 1,"NC(=O)CCCCCn1c(Sc2cc3c(cc2I)OCO3)nc2c(N)nccc21 [Compound 70, 6-(4-amino-2-(6-iodobenzo[d][1,3]dioxol-5-ylthio)-1H-imidazo[4,5-c]pyridin-1-yl)hexanamide]"
2,0.1 to 1,"CC(C)NCCCn1c(Sc2cc3c(cc2I)OCO3)nc2c(N)nccc21 [Compound 52, 2-(6-iodobenzo[d][1,3]dioxol-5-ylthio)-1-(3-(isopropylamino)propyl)-1H-imidazo[4,5-c]pyridin-4-amine]"
3,0.1 to 1,"CC(=O)NCCCn1c(Sc2cc3c(cc2I)OCO3)nc2c(N)nccc21 [Compound 74, N-(3-(4-amino-2-(6-iodobenzo[d][1,3]dioxol-5-ylthio)-1H-imidazo[4,5-c]pyridin-1-yl)propyl)acetamide]"
4,0.1 to 1,"CC(C)(C)NCCCn1c(Sc2cc3c(cc2I)OCO3)nc2c(N)nccc21 [Compound 58, 1-(3-(tert-butylamino)propyl)-2-(6-iodobenzo[d][1,3]dioxol-5-ylthio)-1H-imidazo[4,5-c]pyridin-4-amine]"
5,0.1 to 1,"NC(=O)CCCCn1c(Sc2cc3c(cc2I)OCO3)nc2c(N)nccc21 [Compound 68, 5-(4-amino-2-(6-iodobenzo[d][1,3]dioxol-5-ylthio)-1H-imidazo[4,5-c]pyridin-1-yl)pentanamide]"
6,1 to 10,"COc1ccc(I)c(Sc2nc3c(N)nccc3n2CCCNC(C)C)c1 [Compound 54, 2-(2-iodo-5-methoxyphenylthio)-1-(3-(isopropylamino)propyl)-1H-imidazo[4,5-c]pyridin-4-amine]"
7,1 to 10,"CC(C)NCCCn1c(Sc2cc3c(cc2Br)OCO3)nc2c(N)nccc21 [Compound 51, 2-(6-bromobenzo[d][1,3]dioxol-5-ylthio)-1-(3-(isopropylamino)propyl)-1H-imidazo[4,5-c]pyridin-4-amine]"
8,0.1 to 1,"CCC(CC)NCCCn1c(Sc2cc3c(cc2I)OCO3)nc2c(N)nccc21 [Compound 60, 2-(6-iodobenzo[d][1,3]dioxol-5-ylthio)-1-(3-(pentan-3-ylamino)propyl)-1H-imidazo[4,5-c]pyridin-4-amine]"
9,> 10,"CN(C)Cc1cc2c(cc1Sc1nc3c(N)nccc3n1CCNCC(C)(C)C)OCO2 [Compound 115, 2-(6-((dimethylamino)methyl)benzo[d][1,3]dioxol-5-ylthio)-1-(2-(neopentylamino)ethyl)-1H-imidazo[4,5-c]pyridin-4-amine]"
10,1 to 10,"COc1ccc(I)c(Sc2nc3c(N)nccc3n2CCOC(C)C)c1 [Compound 64, 2-(2-iodo-5-methoxyphenylthio)-1-(2-isopropoxyethyl)-1H-imidazo[4,5-c]pyridin-4-amine]"
11,0.1 to 1,"NC(=O)CCCn1c(Sc2cc3c(cc2I)OCO3)nc2c(N)nccc21 [Compound 66, 4-(4-amino-2-(6-iodobenzo[d][1,3]dioxol-5-ylthio)-1H-imidazo[4,5-c]pyridin-1-yl)butanamide]"
12,0.1 to 1,"CC(=O)NCCCCn1c(Sc2cc3c(cc2I)OCO3)nc2c(N)nccc21 [Compound 76, N-(4-(4-amino-2-(6-iodobenzo[d][1,3]dioxol-5-ylthio)-1H-imidazo[4,5-c]pyridin-1-yl)butyl)acetamide]"
13,0.1 to 1,"CC(C)OCCn1c(Sc2cc3c(cc2I)OCO3)nc2c(N)nccc21 [Compound 62, 2-(6-iodobenzo[d][1,3]dioxol-5-ylthio)-1-(2-isopropoxyethyl)-1H-imidazo[4,5-c]pyridin-4-amine]"
14,1 to 10,"COc1ccc(Br)c(Sc2nc3c(N)nccc3n2CCCNC(C)C)c1 [Compound 53, 2-(2-bromo-5-methoxyphenylthio)-1-(3-(isopropylamino)propyl)-1H-imidazo[4,5-c]pyridin-4-amine]"
15,0.1 to 1,"CC(C)OCCn1c(Sc2cc3c(cc2Br)OCO3)nc2c(N)nccc21 [Compound 61, 2-(6-bromobenzo[d][1,3]dioxol-5-ylthio)-1-(2-isopropoxyethyl)-1H-imidazo[4,5-c]pyridin-4-amine]"
16,0.1 to 1,"CC(=O)NCCn1c(Sc2cc3c(cc2I)OCO3)nc2c(N)nccc21 [Compound 72, N-(2-(4-amino-2-(6-iodobenzo[d][1,3]dioxol-5-ylthio)-1H-imidazo[4,5-c]pyridin-1-yl)ethyl)acetamide]"
